{"source": "patent US10752591B2", "about": "“18-20 member bi-polycyclic compounds” (Haro Pharmaceutical Inc., priority 2014, dated 2020)", "key": {"[1]": {"biological_target": "T1, purified recombinant human HDAC-8 (Homo sapiens, UniProt Q9BY41)", "T1 construct": "purchased Cayman Chem 10009465 (AMC assay (so in the source)); 19380 (HDAC-Glo assay)", "T1 sequence (Q9BY41 1-377)": "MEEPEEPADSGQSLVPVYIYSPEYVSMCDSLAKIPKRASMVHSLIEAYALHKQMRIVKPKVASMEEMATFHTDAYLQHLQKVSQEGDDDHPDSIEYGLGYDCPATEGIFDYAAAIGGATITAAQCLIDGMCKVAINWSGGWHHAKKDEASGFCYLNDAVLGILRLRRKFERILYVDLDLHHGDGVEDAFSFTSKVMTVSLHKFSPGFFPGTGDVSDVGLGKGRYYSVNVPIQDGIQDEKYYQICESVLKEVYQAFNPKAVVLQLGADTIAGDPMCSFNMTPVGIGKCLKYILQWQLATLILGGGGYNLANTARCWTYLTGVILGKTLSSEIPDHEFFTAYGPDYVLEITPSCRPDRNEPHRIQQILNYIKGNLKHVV", "test": "HDAC-8 enzymatic inhibition (Boc-Lys(Tfa)-AMC / HDAC-Glo I/II)", "format": "biochemical", "details": "relative to compound 17", "procedure": "The effect of compounds on the enzymatic activity of purified recombinant human HDAC-1, -2, -3, -6, and -8 activity and of purified rat liver HDAC was examined by measuring the deacetylation of synthetic peptides in various preparations of HDACs. HDAC assays were performed using a two-step enzymatic reaction where enzyme activity is correlated to the release of […] (AMC). AMC fluorescence is measured in a fluorescent plate reading using λex380 nm and λen440 nm.\nHDAC-8, HDAC-9, HDAC-10 and HDAC-11 were assayed using HDAC-Glo™ I/II Kit (Promega Corporation G6421) in a total volume of 110 μl following the manufacturer's instructions.\nThe reaction was allowed to proceed for 40 min at 37° C., after which developer solution (0.5% trypsin, 10 μM trichostatin A (TSA)) was added to obtain a final concentration of 0.1% trypsin, 2 μM TSA. After 30 minutes at room temperature, the amount of free fluorogenic AMC was measured as described above."}, "Lys382 acetylated p53": {"system": "Lys382 acetylated p53", "test": "intracellular acetylation of p53 in IMR-32 cells (western blot)", "format": "cell-based", "details": "1 μM or 5 μM, 16 hours", "procedure": "The effect of certain compounds on intracellular acetylation of target proteins was tested in high risk neuroblastoma cells, BE-2C and IMR-32 cells.\nIMR32 cells were grown to confluence in phenol-red-free RPMI media supplemented with 10% es grade FBS and 2.5 mM Ala-Glu. Cells were treated with DMSO or 1 μM or 5 μM compound 13 in DMSO for 16 hours. Protein extracts were prepared in RIPA buffer in the presence of protease and phosphatase inhibitors. Proteins were separated on a 4-20% gel by PAGE and transferred to a nitrocellulose membrane.\nBeta actin, total and Lys382 acetylated p53, and Lys40 acetylated alpha, and total tubulin were detected using antibodies (Cell Signaling #8557, #2524 #2525, #12152 and #2144 respectively) using manufacturer recommended conditions."}, "mouse pharmacokinetics": {"test": "mouse pharmacokinetics", "format": "in vivo", "details": "mice", "procedure": "Mouse pharmacokinetics studies were conducted in female athymic nude or male C57/B6 mice (n=3). Due to its very poor aqueous solubility, compound 17 was formulated in 66% PEG-400/33% H2O-1% Tween-80. In contrast compound 13 was formulated in 66% PEG-400/33% H2O. Compounds were administered PO (30 mg/kg) or IV (5 mg/kg), and plasma concentrations were measured by UV/HPLC."}, "[2]": {"details": "PO (30 mg/kg) or IV (5 mg/kg), route per parameter not stated"}}, "data": [{"smiles": "CC1(C)CCC(C)(C)c2cc(-c3cc4cc(C(=O)NO)ccc4[nH]3)ccc21", "note": "[Compound 13]", "values": [{"measurement": "times/fold more potent than compound 17 in HDAC-8 inhibition", "setting": "[1]", "result": "at least 13"}, {"measurement": "lysine acetylated p53 level", "setting": "Lys382 acetylated p53", "result": "pronounced accumulation of lysine acetylated p53"}, {"measurement": "T max compared with compound 17", "setting": "mouse pharmacokinetics", "result": "markedly reduced"}, {"measurement": "oral bioavailability, AUC, Cmax compared with compound 17", "setting": "mouse pharmacokinetics", "result": "markedly higher"}, {"measurement": "AUC0-∞", "setting": "mouse pharmacokinetics; [2]", "result": 42.00, "unit": "µM·h"}, {"measurement": "CLp", "setting": "mouse pharmacokinetics; [2]", "result": 0.24, "unit": "mL/min/kg"}, {"measurement": "Cmax", "setting": "mouse pharmacokinetics; [2]", "result": 5.54, "unit": "µM"}, {"measurement": "MRT", "setting": "mouse pharmacokinetics; [2]", "result": 6.9, "unit": "h"}, {"measurement": "Tmax", "setting": "mouse pharmacokinetics; [2]", "result": 1.4, "unit": "h"}, {"measurement": "Vd,ss", "setting": "mouse pharmacokinetics; [2]", "result": 8, "unit": "L/kg"}]}]}
